The source of these data is patent publication US20260248799A1, “COMBINATIONS OF RETINALDEHYDE DEHYDROGENASE 1 (RALDH1) INHIBITORS AND IMMUNOSTIMULATORS AND METHODS USING SAME” (The Trustees of the University of Pennsylvania, priority 2023, published 2026).

The term AUC(0-inf) denotes total exposure, with the tail of the curve extrapolated. Read a high AUC(0-inf) as more exposure. As usually defined, the half-life is how long it takes for the measured level to halve. One may read the Cmax as the highest concentration seen after dosing.

Data set [1] deals with murine HCC cell line (Hepa1-6). Kind of data set: AldeRed assay in Hepa1-6 cells. Format: cell-based, mouse. To be noted: murine HCC cell line, 24 hours exposure. The method, then: Cultures of tumor cells or primary monocyte-derived cells were treated with C86, C91, C99, BMS 493 (Tocris, 3509) or Win 18446 (Tocris, 4736) at a time and concentration indicated in corresponding figure legends.
(§1) The AldeRed assay (EMD Millipore) was performed according to manufacturer's instructions to identify cells with ALDH activity. In brief, single-cell suspensions of Huh7, Huh1, SNU449, SNU398, HEP3B, PLC, Hepa 1-6, Hep55, and AL458A cultured cells or single-cell suspension generated from enzymatic digestion of tumors generated from transplantation of these cells in mice (as indicated in figure legends) were incubated with a fluorescent and non-toxic ALDH substrate (AldeRed 588-A); the fluorescent product accumulates in cells proportional to their ALDH activity. The amount of fluorescence produced is measured by flow cytometry. The ALDH inhibitor diethylaminobenzaldehyde (DEAB, provided with the AldeRed assay kit) was used as a negative control for background fluorescence assessment.

Data set [2] can be described thus: Pharmacokinetics IV and PO in CD-1 mice, plasma. In kind it is in vivo. To be noted: mouse plasma; for Cmax: read-out: Cmax. The source says: The PK studies were done at NIH or a commercial CRO—Pharmacon using their in-house standard protocol. […] For C99, IV and PO, performed at NIH using CD-1 mice; formulation: 20% HPbCD in saline.
Data set [3] deals with Hepa 1-6 cells. Kind of data set: In vitro proliferation and viability of Hepa 1-6 cells. Format: cell-based, mouse. Conditions: murine HCC cell line Hepa 1-6.
Data set [4] has as its system human RALDH isozymes. Kind of data set: IC50 on human RALDH isozymes (FIG. 29A). In kind it is biochemical.
Data set [5] relates to Hepa 1-6 tumors. Kind of data set: Hepa 1-6 tumors in mice. In kind it is in vivo, mouse. The method, then:
FIGS. 28A-28G: C99 inhibits murine RALDH1 and suppresses murine HCC growth. FIG. 28A: AldeRed assay was performed on Hepa1-6 (murine HCC, left graph) and SNU398 (human HCC, right graph) cells with or without different concentration of C99 (x-axis). Shown is the percentage of AldeRed-positive cells (y-axis) after 24 hours exposure to C99. Murine RALDH1 is sensitive to C99. FIG. 28B: Hepa1-6 cells were treated with different concentrations of C99 in vitro and the number of viable cells were counted at different time points. […] FIG. 28C: C57BL6/J mice were implanted subcutaneously with Hepa1-6 cells and the tumor-bearing mice. To prevent spontaneous rejection of this cell line, mice were treated with anti-CD3. Once the tumors reached around 50 mm^3 size, mice were treated with C86 or C99 (i.p., 20 mg/kg) every day. […] C99, but not C86, suppresses murine HCC growth. Two independent experiments were performed with at least three replicates per experimental group. Unpaired t test, two-tailed. FIG. 28D: Tumors in (FIG. 28C) were harvested at endpoint, single-cell suspension generated, and AldeRed assay was performed along with surface staining with immune cell markers. Shown is the percentage of AldeRed-positive cells in nonleukocytes (CD45 negative, mostly tumor cells) under the different treatment conditions. Two independent experiments were performed with at least three replicates per experimental group. Unpaired t test, two-tailed. FIG. 28E: FCS base frequency of Macrophages (F4/80^+ cells) within CD45^+ leukocytes in tumor tissues from experiment outlined in (FIGS. 28C-28D). Two independent experiments were performed with at least three replicates per experimental group. Unpaired t test, two-tailed. FIG. 28F: Hepa1-6 tumor-bearing NU/J mice were treated with chlodronate liposomes (CloLipo) and/or C86/C99. CloLipo treatment suppresses tumor growth and renders tumors insensitive to C99. Two independent experiments were performed with at least three replicates per experimental group. Unpaired t test, two-tailed. FIG. 28G: The murine fibrosarcoma (FS) cell line was implanted subcutaneously into C57BL6/J mice. Mice were treated with 25 mg/kg of C-99 or vehicle everyday starting one day after tumor cell transplantation. *, P<0.05; **, P<0.01; ***, P<0.001; ns, not significant.
Cultured Huh7, Huh1, Hepa 1-6, Hep55, and FS (as indicated in figure legends) tumor cells were detached using 0.25% trypsin (Gibco, catalog #25200056), washed once with 1×PBS, and counted before implantation. 3~6×10^6 tumor cells were implanted subcutaneously (s.c.) into shaved flanks of recipient mice. Tumor dimensions were measured using a caliper starting at the day indicated in the accompanying figure legend and every two to three days thereafter; volume was calculated by using formula Length*Width^2/2. Tumor volumes of 2,000 mm^3, tumor length of 2 cm or tumor ulceration were used as endpoints for survival analyses.
To deplete T cells, 200 μg of mouse CD3-specific antibody (clone 17A2) was administered i.p. starting three days before tumor implantation and repeated every three to four days until mouse sacrifice. To deplete macrophages, 200 μL of clodronate liposome (CloLipo) or PBS-liposome (CtrlLipo) (both Liposoma) was administered i.p. starting three days prior to tumor implantation and repeated every four days until mouse sacrifice. Macrophage depletion efficacy in spleen and within tumors was confirmed by flow cytometry using canonical macrophage marker F4/80. […]

For data set [6], the system named is SNU398 human HCC cells. Put plainly: AldeRed (Aldefluor) assay in SNU398 cells. Format: cell-based. The method, then:
as §1
The Aldefluor assay has been used to identify and isolate cells with high ALDH activities. This assay is based on the principle that ALDH can convert the ALDH-substrate, Bodipy-aminoacetaldehyde (BAAA) into Bodipy-aminoacetate (BAA) which is retained inside the cells. BAAA is uncharged and can diffuse freely into intact viable cells, however BAA cannot cross the membrane due to its net negative charge, which makes remain in the cells and the assay buffer prevents efflux of the BAA from the cells. Therefore, the amount of BAA fluorescence in cells is proportional to ALDH activity and can be measured using a flow cytometer. A specific inhibitor of ALDH, diethylaminobenzaldehyde (DEAB), is used for background fluorescence control.

The subject of data set [7] is murine fibrosarcoma (FS) cell line. Kind of data set: FS murine fibrosarcoma in C57BL6/J mice. Format: in vivo, mouse. To be noted: 25 mg/kg everyday. On the procedure:
FIGS. 28A-28G: C99 inhibits murine RALDH1 and suppresses murine HCC growth. FIG. 28A: AldeRed assay was performed on Hepa1-6 (murine HCC, left graph) and SNU398 (human HCC, right graph) cells with or without different concentration of C99 (x-axis). Shown is the percentage of AldeRed-positive cells (y-axis) after 24 hours exposure to C99. Murine RALDH1 is sensitive to C99. FIG. 28B: Hepa1-6 cells were treated with different concentrations of C99 in vitro and the number of viable cells were counted at different time points. […] FIG. 28C: C57BL6/J mice were implanted subcutaneously with Hepa1-6 cells and the tumor-bearing mice. To prevent spontaneous rejection of this cell line, mice were treated with anti-CD3. Once the tumors reached around 50 mm^3 size, mice were treated with C86 or C99 (i.p., 20 mg/kg) every day. […] C99, but not C86, suppresses murine HCC growth. Two independent experiments were performed with at least three replicates per experimental group. […]
Cultured Huh7, Huh1, Hepa 1-6, Hep55, and FS (as indicated in figure legends) tumor cells were detached using 0.25% trypsin (Gibco, catalog #25200056), washed once with 1×PBS, and counted before implantation. […] Tumor dimensions were measured using a caliper starting at the day indicated in the accompanying figure legend and every two to three days thereafter; volume was calculated by using formula Length*Width^2/2. […]

The mark [8] stands for this setting: male, CD-1, intravenous administration, 2 mg/kg.
Where [9] appears, read: male, CD-1, oral administration, 10 mg/kg.

Like-named read-outs stand apart in the source and are kept apart here.

In the case of `C=CS(=O)(=O)N1CCN(c2c(C(=O)N3CCN(S(C)(=O)=O)CC3)cnc3ccc(F)cc23)CC1` [Compound C-99, (6-fluoro-4-(4-(vinylsulfonyl)piperazin-1-yl)quinolin-3-yl)(4-(methylsulfonyl)piperazin-1-yl)methanone], the “RALDH1 activity (AldeRed-positive cells)” value in data set [1] is “suppressed RALDH1 activity”. In data set [2] (setting [8]), the AUC(0-inf) turned out to be 37 ng·h/mL, the half-life is 6 min and the highest concentration (Cmax) was 117 ng/mL. Moreover, the clearance in data set [2] (male, CD-1, intravenous administration, 2 mg/kg, read-out: CLp) was found to be 887 mL/min/kg. In addition, in data set [2] (male, CD-1, intravenous administration, 2 mg/kg, read-out: Vss), the Vd was 2.7 L/kg. In data set [2] (setting [9]), the AUC(0-inf) stood at 11 ng·h/mL, the half-life was 30 min and the Cmax came to 16 ng/mL. In addition, in data set [2] (oral administration, 10 mg/kg), the F came out at 6.3%. Also, in data set [3], the “proliferation or viability in vitro” value is on record as “did not reduce proliferation or viability”. Also, the “IC50 relative to C86” value in data set [4] is listed as “significantly greater than that of C86”. For the same molecule, the “sensitivity of TAM-depleted tumors to treatment” value in data set [5] (Hepa 1-6, CloLipo-treated) is “insensitive to C99 treatment”. Moreover, in data set [5] (Hepa 1-6 in C57BL6/J mice treated with anti-CD3, i.p., 20 mg/kg every day), the “tumor growth in vivo” value is recorded as “significantly suppressed tumor growth in vivo”. Moreover, the “frequency of TAMs within the TME” value in data set [5] (Hepa 1-6 tumors at endpoint) is recorded as “reduced”. The “AldeRed activity in tumor cells” value in data set [5] (Hepa 1-6 tumors at endpoint, CD45 negative cells) is given as “reduced AldeRed activity in tumor cells”. Moreover, the “concentration range suppressing RALDH1 activity” value in data set [6] (AldeRed assay, FIG. 28A and FIG. 20A) is reported as “micromolar”. Further, in data set [6] (human HCC cell line, 24 hours exposure), the “RALDH1 activity (AldeRed-positive cells)” value is listed as “suppressed RALDH1 activity”. Also, in data set [7], the fibrosarcoma growth entry was “did not suppress fibrosarcoma growth”.
